99 compounds from ChEMBL document CHEMBL3507680, “University of Dundee, Gates Library screen for HepG2 cell viability” can be followed below.

The data set in a line: Human HepG2 cell viability assay in 384 well format. To be noted: HepG2 cells, read-out: Inhibition. On the set-up: dose 125 nL, time 70.5 hour; concentration not given beside the values. The data set is classed as toxicity, cell-based.
For the compound `COc1cc(C(=O)NS(=O)(=O)c2cc(Cl)sc2Cl)ccc1OC(F)F`, the cytotoxicity at 70.5 h was -5.6%.
The figure for `Cn1cc(CN2CCC(c3[nH]ncc3S(C)(=O)=O)C2)cn1` (centres undefined) is -2.27%; for `O=C(c1ccccc1)N1CC(C(=O)N2CCOCC2)C2(CCOCC2)C1` (centres undefined) it is 7.01%; for `CC(=O)N1CCC(c2nccnc2Nc2cnccn2)CC1` it is -10.2%.
With `c1ccc(CCCN2CCCN(c3ncnc4[nH]ccc34)CC2)cc1` the figure was -15.3%.
With `CN(CC(=O)Nc1ccncc1)C1CCCN(c2cccnn2)C1` (centres undefined) the figure was -3.61%; with `N#Cc1ccccc1CN1CCC2(CC1)CC(c1ccccc1)C(=O)N2` (centres undefined), 14%; with `CCN(C(C)=O)c1nc(CN2CCCCC2Cn2cncn2)cs1` (centres undefined), -3.03%.
As for `COc1cccc(CNCC2CN(C)CCO2)c1` (centres undefined), the cytotoxicity at 70.5 h was -7.17%.
With `CC(=O)NCC(=O)N1CCC(c2cncc(Oc3cccnc3)n2)CC1` the figure was -9.15%; with `Cn1c(CN2CCOC(c3nc(C(C)(C)C)n[nH]3)C2)nnc1C1CC1` (centres undefined), 26.5%.
Turning to `COCc1ccccc1CNC(=O)CN1CCCC1c1noc(C)n1` (centres undefined), the cytotoxicity at 70.5 h was -2.27%.
Take `O=C(CN(Cc1ccccc1)CC1CCOCC1)Nc1nccs1`: the cytotoxicity at 70.5 h was -0.217%.
As for `COCCc1ncc(CN2CCC(Oc3ccccc3C)CC2)cn1`, the cytotoxicity at 70.5 h is -0.184%.
Take `CC1CN(C)CCN1C(=O)c1ccn(-c2ccccc2)n1` (centres undefined): the cytotoxicity at 70.5 h turned out to be 17.4%.
As for `COc1ccc(-c2c(C)nn3c(=N)c(C#N)n[nH]c23)cc1OC`, the cytotoxicity at 70.5 h is -15.3%.
With `CC(=O)c1cccc(NC(=O)CN2CCCC(C3OCCO3)C2)c1` (centres undefined) the figure was -7.07%; with `Cn1cccc1C(=O)N1CCN(CC2CC2)c2ncccc2C1`, 2.74%.
The figure for `CC(c1ccc(Cl)cc1)N1CCN(CCS(C)(=O)=O)CC1` (centres undefined) is -6.43%; for `CC(=O)N1CCN(C(=O)NCc2cccnc2OC(C)C)CC1` it is 26.4%.
The figure for `O=C(NCCCn1cccn1)N1CCCC1c1ccsc1` (centres undefined) is -9.1%.
As for `Cc1c(C2CCCN(C(=O)Cc3ccccn3)C2)n2c(nc1=O)CCC2` (centres undefined), the cytotoxicity at 70.5 h was found to be 0.807%.
The figure for `CCn1c(C)nnc1SCCNc1cc(OC)ncn1` is -18.6%.
With `COc1ccc(OC2CCN(C(=O)C3CCCN(C)C3)CC2)cc1` (centres undefined), the cytotoxicity at 70.5 h was -0.196%.
For `Cc1nn(C)c(N2CCOCC2)c1CNC(C)c1ccccn1` (centres undefined), the cytotoxicity at 70.5 h was 5.82%.
With `COC1(CNS(=O)(=O)c2ccccc2Br)CCSC1` (centres undefined) the figure was -4.04%.
The figure for `CCc1nnc2n1CCN(CC(=O)Nc1cc(C)nn1C)C2` is -4.31%.
For `O=C(c1ccoc1)N1CCC2(CC1)COC(COCc1ccccn1)C2` (centres undefined), the cytotoxicity at 70.5 h stood at 10.2%.
For the compound `CCc1ncc(CN2CCc3nc4sc(C)cc4c(=O)n3CC2)cn1`, the cytotoxicity at 70.5 h came to 17.6%.
For `Cc1c[nH]c(C2COCCN2S(=O)(=O)c2cn[nH]c2)n1` (centres undefined), the cytotoxicity at 70.5 h was -12.8%.
As to `Cc1cc(C)nc(C2CCN(C3CCCCC3)C2)n1` (centres undefined), the cytotoxicity at 70.5 h is -5.66%.
With `Cc1cc(-c2nnc(SCC(=O)O)n2C(C)c2ccccc2)nn1C` (centres undefined) the figure was -0.677%; with `Cc1ccc(CN2C[C@@H]3[C@@H](C2)OCC(=O)N3Cc2ccncc2)s1`, 10.5%.
The figure for `COC1CCN(S(=O)(=O)N2CCC3(CCCNC3=O)C2)CC1` (centres undefined) is -0.998%; for `COCCN(Cc1ccc(F)cc1Cl)C(=O)c1c(C)noc1C` it is 2.4%; for `Cc1nc2[nH]cnc(NCCN3CCCC3)c-2n1` it is -9.67%.
As to `Cn1cc(NC(=O)N2CCC(Cc3ccccc3)CC2)ccc1=O`, the cytotoxicity at 70.5 h was -2.61%.
In the case of `O=C(NCCNc1ncccn1)C1CCCC1`, the cytotoxicity at 70.5 h came to 15.4%.
As for `CCc1nc(C2CCCN2CC(=O)Nc2c(C)nn(C)c2C)no1` (centres undefined), the cytotoxicity at 70.5 h is -3.18%.
The figure for `CN1CCCC1c1cccc(Cc2ccccc2F)n1` (centres undefined) is 0.232%; for `CC(C)CNC(=O)CN(CC(=O)NCC(C)C)S(C)(=O)=O` it is -8.05%; for `CCC(=O)c1ccc(OCC(=O)N(C)C(C)c2ccon2)cc1` (centres undefined) it is -13.2%.
On to `NC(=O)C1CCN(CC(=O)N(Cc2ccccc2)Cc2nccs2)CC1`, for which the cytotoxicity at 70.5 h is -7.45%.
With `CCN(CC)Cc1cc(C(=O)N2CCC3(CC2)NCCNC3=O)c(C)o1` the figure was 1.97%; with `O=C(Cc1cccc(F)c1)N1C[C@H]2CN(Cc3cccnc3)C[C@H]2C1`, -12%.
For the compound `COCC1CN(Cc2ccc(C)o2)Cc2nnn(CC3CC3)c21` (centres undefined), the cytotoxicity at 70.5 h is -5.7%.
With `COCCc1noc(CN2C(=O)OC[C@@H]2C(C)C)n1` the figure was 2.12%.
On to `Cc1cccc(CN2C[C@@H]3CC[C@H](C2)N(Cc2c(C)noc2C)C3=O)n1`, for which the cytotoxicity at 70.5 h was -3.2%.
The figure for `Cn1cnnc1CNC(=O)C1CCCN(Cc2cccc(F)c2)C1` (centres undefined) is -13.7%; for `CC(=O)N1C[C@@H](c2ccsc2)[C@@H]2CN(Cc3ccccc3Cl)CC[C@@H]21` it is -5.99%; for `Cc1ccc(N2N=C(C(N)=O)S(=O)(=O)c3cccnc32)cc1` it is -2.2%.
With `CCC(NC(=O)c1cnc(N(C)C)nc1C)c1ccc(S(C)(=O)=O)cc1` (centres undefined) the figure was -8.61%; with `Cc1nc(CN2CCCN(C(=O)c3c(C)oc(C)c3C)CC2)cs1`, -10%; with `CCCc1cc(=O)[nH]c2nnc(SCC(=O)NC(C)(C)C)n12`, -8.6%.
The figure for `COC[C@@]12CCO[C@@H]1CCN(Cc1ccccc1F)C2` is -9.38%.
Consider `COc1ccc(C(=O)C2CCCN(CCc3ccccc3)C2)c(OC)c1` (centres undefined), for which the cytotoxicity at 70.5 h came out at 18.4%.
The figure for `Cc1cnc(C(=O)N2C[C@H](N3CCOCC3)[C@@H]3OCCC[C@@H]32)cn1` is -13.1%; for `CC(CC#N)N(C)Cc1ccccc1Cl` (centres undefined) it is -7.77%; for `NC(=O)c1cn(CC2CCC2)c(C2CC2)n1` it is 3.19%.
The figure for `Cc1cc(CN2Cc3ccccc3CC2c2nnc(C)o2)no1` (centres undefined) is 1.64%; for `Cc1nc(CNc2ncc(Br)cn2)n[nH]1` it is -5.62%; for `COc1ccc(Cl)cc1NC(=O)CN1CCc2nc(NC(C)=O)sc2C1` it is 18.9%.
The figure for `O=C(c1cncs1)N1CCC(c2cnccn2)CC1` is -8.41%.
Regarding `CCN(Cc1nc2c(cnn2C)c(=O)[nH]1)c1cccc(F)c1`, the cytotoxicity at 70.5 h is -5.89%.
With `CSCC[C@@H](CO)NC(=O)c1ccc2nc(NS(C)(=O)=O)sc2c1` the figure was -1%.
With `Cc1c(CNC(=O)C2CCCCCN2C)oc2ccccc12` (centres undefined) the figure was -0.804%.
With `CC(C)(C)CC(=O)NCCn1ccc(-c2ccncc2)n1`, the cytotoxicity at 70.5 h was -15.2%.
With `COCC[C@]1(O)CCN(C2CCN(C(=O)C3CCC3)CC2)C[C@H]1C` the figure was -9.1%.
With `CN(Cc1cnn(C)c1)C(=O)Nc1cccnc1-n1cccn1` the figure was 14.6%.
With `COc1ccc(C(=O)N2CCO[C@H]3[C@@H](OCC4CC4)CC[C@@H]32)cc1F` the figure was -2.05%; with `O=C(NCc1ccccc1)c1nn(C2CCS(=O)(=O)C2)c2c1CCCC2` (centres undefined), 4.17%.
As to `Cc1cnc(N2CCCC(c3ccccc3)C2)nc1-c1ccnn1C` (centres undefined), the cytotoxicity at 70.5 h is -8.04%.
For the compound `OCCCN1CCCC1c1nc(Cc2ccc(F)cc2)no1` (centres undefined), the cytotoxicity at 70.5 h is 8.04%.
As for `CC1(C)[C@H](Cc2cc(CO)on2)C[C@@H]1NCc1ccc(CO)o1`, the cytotoxicity at 70.5 h stood at 14.7%.
For the compound `COC(=O)C1(NCC(=O)Nc2cc(C)ccc2OC)CCCCC1`, the cytotoxicity at 70.5 h is 2.15%.
In the case of `CC(=O)N1CCCC2(C1)CN(c1nncs1)CCO2` (centres undefined), the cytotoxicity at 70.5 h was -4.62%.
Take `COCCC1COC2(CCN(C(=O)c3ccncc3)CC2)C1` (centres undefined): the cytotoxicity at 70.5 h is 30.8%.
The figure for `CNS(=O)(=O)CCCNC(C)(C)c1nc(C)cs1` is -1.16%.
For `Cc1cc(C)n(C2CCN(c3ncnc4c3CCNCC4)C2)n1` (centres undefined), the cytotoxicity at 70.5 h is -9.03%.
Consider `CCCn1c(=O)n(CCC(=O)N(C)Cc2ccc(C)o2)c2ccccc21`, for which the cytotoxicity at 70.5 h is -4.98%.
As for `CCc1ccc(C(=O)N2CCC3(CCC(=O)N(CCN(C)C)C3)CC2)[nH]1`, the cytotoxicity at 70.5 h was -1.77%.
The figure for `Cc1cccc(COC[C@H]2CC[C@H]3[C@H](CCN3C(=O)CC3CC3)O2)n1` is -6.89%; for `Cn1ncc2c(NCCCOc3cccnc3)nc(C3CCCC3)nc21` it is 16.2%.
On to `COC[C@@]12CCO[C@@H]1CCN(C(=O)C1CCOCC1)C2`, for which the cytotoxicity at 70.5 h was -11.6%.
As for `CCn1cnnc1CNC(=O)c1cc(Cl)ccc1I`, the cytotoxicity at 70.5 h was -10.9%.
With `O=C(NCC1(O)COCCN(Cc2ccc(O)cc2)C1)c1cnccn1` (centres undefined), the cytotoxicity at 70.5 h is -9.12%.
The figure for `Cc1cc(-c2cnc(NCc3cccnc3)nc2C(C)(C)C)on1` is -18.2%.
For `C=Cc1ccc(C(=O)N2CCCC(Nc3ccc(F)cc3)C2)cc1` (centres undefined), the cytotoxicity at 70.5 h came out at 17%.
Regarding `COc1cccc(OCC(=O)NS(=O)(=O)c2ccc(C)s2)c1`, the cytotoxicity at 70.5 h was determined as 14%.
As for `CCc1nnc2n1CCN(C(=O)c1ccc(C(F)(F)F)nc1C)C2`, the cytotoxicity at 70.5 h was -15.4%.
For `Cc1ncsc1C(=O)NCCc1cccs1`, the cytotoxicity at 70.5 h came to 2.38%.
The figure for `CC(C)CCNC(=O)C1CCN(c2ccc3nnc(C(C)C)n3n2)CC1` is -30%.
The figure for `COc1ccc(C[C@H]2CNCC[C@@H]2OCC2CC2)cc1` is -8.25%; for `CNc1nc(C(=O)N2CCC3(CCCN(CC4CC4)C3=O)C2)cs1` (centres undefined) it is -1.68%; for `CCOCC(O)CN1CCN(C(=O)c2cc(C)ccc2OC)CC1` (centres undefined) it is -5.99%.
With `Nc1ncc(CN2C[C@H](C3CC3)[C@@H](N)C2)cn1` the figure was -5.66%; with `COc1cccc(CNCc2ccc(NC(=O)NC(C)C)cc2)c1`, 7.1%; with `O=C(Cn1cc(-c2ccccc2)ncc1=O)Nc1nnc[nH]1`, -13.5%.
As to `CCn1cc(CN2C[C@@H]3CCCN3C[C@@H]2CCSC)cn1`, the cytotoxicity at 70.5 h was -2.81%.
